Reference: PubChem BioAssay AID248 (DTP/NCI, 2004)
Toxic doses and inconclusive results are not listed. No stated cut-off is given here; in the data, active means T/C of 150% or more; inactive means T/C below 125%.

Tested on: L1210 leukemia ip in BDF1 mice, survival T/C
Assay: NCI In Vivo Anticancer Drug Screen. Data for tumor model L1210 Leukemia (intraperitoneal) in B6D2F1 (BDF1) mice
Settings: endpoint: mean survival time, higher = longer survival
How it was run: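 Transplanted-tumor mice were given test agent; controls received vehicle only. Survival readings from the two groups were divided (treated over control).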

Measured: T/C

CC(=O)N(C)c1ccc(NC(=O)/C=C/c2ccccc2)cc1
inactive: dose: 100.0 mg/kg/injection, schedule: Q01DX009 (ip), vehicle: Klucel (hydroxypropylcellulose) (HPC) 95 % of control | dose: 200.0 mg/kg/injection, schedule: Q01DX009 (ip), vehicle: Klucel (hydroxypropylcellulose) (HPC) 101 % of control | dose: 400.0 mg/kg/injection, schedule: Q01DX009 (ip), vehicle: Klucel (hydroxypropylcellulose) (HPC) 105 % of control

Cc1ccc(S(=O)NNc2ccccc2)cc1 (stereo unspecified)
inactive: dose: 100.0 mg/kg/injection, schedule: Q01DX001 (ip), vehicle: saline 93 % of control | dose: 200.0 mg/kg/injection, schedule: Q01DX001 (ip), vehicle: saline 104 % of control | dose: 400.0 mg/kg/injection, schedule: Q01DX001 (ip), vehicle: saline 93 % of control
